Experimental data published in ChEMBL document CHEMBL3621045, “Structural Insights Lead to a Negamycin Analogue with Improved Antimicrobial Activity against Gram-Negative Pathogens” (ACS Med Chem Lett, 2015).
Converted amounts (≈) assume the structure as drawn.

Assays:
Escherichia coli [1] = assay: Inhibition of transcription-translation process in Escherichia coli; type: functional
Acinetobacter baumannii = assay: Antibacterial activity against Acinetobacter baumannii ARC 3495; type: functional
Klebsiella pneumoniae = assay: Antibacterial activity against Klebsiella pneumoniae ATCC 700603; type: functional
Pseudomonas aeruginosa [2] = assay: Antibacterial activity against Pseudomonas aeruginosa PAO1; type: functional
Pseudomonas aeruginosa [3] = assay: Antibacterial activity against mexABCDXY-deficient Pseudomonas aeruginosa PAO1; type: functional
Escherichia coli [4] = assay: microbe, parasite or virus in culture; conditions: ATCC 25922
Description: Antibacterial activity against Escherichia coli ATCC 25922

Escherichia coli [5] = assay: microbe, parasite or virus in culture; conditions: ATCC 25922; remark: listed apart in the source
Description: Antibacterial activity against tolC-deficient Escherichia coli ATCC 25922

Compound	IC50 (Escherichia coli [1]; Escherichia coli) [µM]	MIC (Acinetobacter baumannii) [µg/mL]	MIC (Klebsiella pneumoniae) [µg/mL]	MIC (Pseudomonas aeruginosa [2]) [µg/mL]	MIC (Pseudomonas aeruginosa [3]) [µg/mL]	MIC (Escherichia coli [4]) [µg/mL]	MIC (Escherichia coli [5]) [µg/mL]	IC50 (Escherichia coli [1]) [µM]
COCCNC[C@H](O)C[C@@H](N)CC(=O)NN(C)CC(=O)O	5.3	256 (≈ 836 µM)	128 (≈ 418 µM)	> 256	> 256	> 256	128 (≈ 418 µM)	
CNCCCNC[C@H](O)C[C@@H](N)CC(=O)NN(C)CC(=O)O	5.8	64 (≈ 200 µM)	64 (≈ 200 µM)	256 (≈ 801 µM)	256 (≈ 801 µM)	256 (≈ 801 µM)	256 (≈ 801 µM)	
NC[C@H](O)C[C@@H](N)CC(=O)NNCC(=O)O	34	> 64	> 64	> 64		> 64		
CCNC[C@H](O)C[C@@H](N)CC(=O)NN(C)CC(=O)O	0.5	64 (≈ 232 µM)	64 (≈ 232 µM)	512 (≈ 1850 µM)		64 (≈ 232 µM)		
CN(CC(=O)O)NC(=O)C[C@H](N)C[C@@H](O)CNCc1ccccc1	1	> 256	128 (≈ 378 µM)	> 256		128 (≈ 378 µM)		
CN(CC(=O)O)NC(=O)C[C@@H](N)C[C@@H](O)CN	13	256 (≈ 1030 µM)	256 (≈ 1030 µM)	> 256		> 256		
CN(CC(=O)O)NC(=O)C[C@H](N)C[C@@H](O)CNCCC(N)=O	4	> 256	> 256	> 256	> 256	> 256	256 (≈ 802 µM)	
CN(CC(=O)O)NC(=O)C[C@H](N)C[C@@H](O)CNCC(N)CN (stereo not given in full)	10	32 (≈ 99.9 µM)	64 (≈ 200 µM)	128 (≈ 400 µM)	128 (≈ 400 µM)	128 (≈ 400 µM)	128 (≈ 400 µM)	
CN(CC(=O)O)NC(=O)C[C@H](N)C[C@@H](O)CNCC1CCNC1 (stereo not given in full)	3.3	64 (≈ 193 µM)	128 (≈ 386 µM)	256 (≈ 772 µM)	128 (≈ 386 µM)	256 (≈ 772 µM)	256 (≈ 772 µM)	
CN(CC(=O)O)NC(=O)C[C@@H](N)C[C@@H](O)CNCCCN	2.8	32 (≈ 105 µM)	64 (≈ 210 µM)	128 (≈ 419 µM)	128 (≈ 419 µM)	128 (≈ 419 µM)	128 (≈ 419 µM)	
CN(CC(=O)O)NC(=O)C[C@H](N)C[C@@H](O)CNCCCO	11	256 (≈ 836 µM)	512 (≈ 1670 µM)	> 1020	1020 (≈ 3340 µM)	512 (≈ 1670 µM)	128 (≈ 418 µM)	
NC[C@H](O)C[C@@H](N)CC(=O)NOCC(=O)O	> 100	> 256	> 256	> 256		> 256		
GENTAMICIN [listing 1 of 2 here]		> 64	8	1	0.13			
CN(CC(=O)O)NC(=O)C[C@H](N)C[C@@H](O)[C@H](N)CO	78	> 512	> 512	> 512		> 512		
CN(CC(=O)O)NC(=O)C[C@H](N)C[C@H](F)CN	26	> 512	> 512	> 512		> 512		
CN(CC(=O)O)NC(=O)C[C@H](N)C[C@@H](O)CN [NEGAMYCIN]	1.7	16 (≈ 64.4 µM)	32 (≈ 129 µM)	32 (≈ 129 µM)	16 (≈ 64.4 µM)	16 (≈ 64.4 µM)	16 (≈ 64.4 µM)	
CN(CC(=O)O)NC(=O)C[C@H](N)C[C@@H](O)[C@@H](N)CO	7.3	128 (≈ 460 µM)	> 128	> 128		> 128		
GENTAMICIN [listing 2 of 2 here]								0.4
CC(CN)CNC[C@H](O)C[C@@H](N)CC(=O)NN(C)CC(=O)O (stereo not given in full)	1.1	16 (≈ 50.1 µM)	16 (≈ 50.1 µM)	32 (≈ 100 µM)	16 (≈ 50.1 µM)	32 (≈ 100 µM)	16 (≈ 50.1 µM)	
CN(CC(=O)O)NC(=O)C[C@H](N)C[C@@H](O)CNCc1ccccn1	11	> 256	> 256	> 256	> 256	> 256	256 (≈ 754 µM)	
CN(CC(=O)O)NC(=O)C[C@H](N)CCCN	3.3	128 (≈ 551 µM)	128 (≈ 551 µM)	128 (≈ 551 µM)		128 (≈ 551 µM)		
CN(CC(=O)O)NC(=O)C[C@H](N)C[C@H](O)CN	51	512 (≈ 2060 µM)	1020 (≈ 4120 µM)	> 1020		1020 (≈ 4120 µM)		
CN(CC(=O)O)NC(=O)C[C@H](N)C[C@@H](F)CN	2.9	128 (≈ 511 µM)	64 (≈ 256 µM)	128 (≈ 511 µM)		64 (≈ 256 µM)		
